Where two headings read alike, the source gives them in different places.
Legend:
UGT1A1 = tested on: UGT1A1; parameters: method as in suppl. 32; conditions: ref suppl. 32; cited from earlier work
UGT1A3 = tested on: UGT1A3; parameters: method as in suppl. 32; conditions: ref suppl. 32; cited from earlier work
aldehyde oxidase (AO) [1] = target: T1, aldehyde oxidase (AO) (Homo sapiens, UniProt Q06278); experiment: In vitro AO inhibition (literature); conditions: cytosol, Figure 5
T1 sequence (Q06278 1-1338): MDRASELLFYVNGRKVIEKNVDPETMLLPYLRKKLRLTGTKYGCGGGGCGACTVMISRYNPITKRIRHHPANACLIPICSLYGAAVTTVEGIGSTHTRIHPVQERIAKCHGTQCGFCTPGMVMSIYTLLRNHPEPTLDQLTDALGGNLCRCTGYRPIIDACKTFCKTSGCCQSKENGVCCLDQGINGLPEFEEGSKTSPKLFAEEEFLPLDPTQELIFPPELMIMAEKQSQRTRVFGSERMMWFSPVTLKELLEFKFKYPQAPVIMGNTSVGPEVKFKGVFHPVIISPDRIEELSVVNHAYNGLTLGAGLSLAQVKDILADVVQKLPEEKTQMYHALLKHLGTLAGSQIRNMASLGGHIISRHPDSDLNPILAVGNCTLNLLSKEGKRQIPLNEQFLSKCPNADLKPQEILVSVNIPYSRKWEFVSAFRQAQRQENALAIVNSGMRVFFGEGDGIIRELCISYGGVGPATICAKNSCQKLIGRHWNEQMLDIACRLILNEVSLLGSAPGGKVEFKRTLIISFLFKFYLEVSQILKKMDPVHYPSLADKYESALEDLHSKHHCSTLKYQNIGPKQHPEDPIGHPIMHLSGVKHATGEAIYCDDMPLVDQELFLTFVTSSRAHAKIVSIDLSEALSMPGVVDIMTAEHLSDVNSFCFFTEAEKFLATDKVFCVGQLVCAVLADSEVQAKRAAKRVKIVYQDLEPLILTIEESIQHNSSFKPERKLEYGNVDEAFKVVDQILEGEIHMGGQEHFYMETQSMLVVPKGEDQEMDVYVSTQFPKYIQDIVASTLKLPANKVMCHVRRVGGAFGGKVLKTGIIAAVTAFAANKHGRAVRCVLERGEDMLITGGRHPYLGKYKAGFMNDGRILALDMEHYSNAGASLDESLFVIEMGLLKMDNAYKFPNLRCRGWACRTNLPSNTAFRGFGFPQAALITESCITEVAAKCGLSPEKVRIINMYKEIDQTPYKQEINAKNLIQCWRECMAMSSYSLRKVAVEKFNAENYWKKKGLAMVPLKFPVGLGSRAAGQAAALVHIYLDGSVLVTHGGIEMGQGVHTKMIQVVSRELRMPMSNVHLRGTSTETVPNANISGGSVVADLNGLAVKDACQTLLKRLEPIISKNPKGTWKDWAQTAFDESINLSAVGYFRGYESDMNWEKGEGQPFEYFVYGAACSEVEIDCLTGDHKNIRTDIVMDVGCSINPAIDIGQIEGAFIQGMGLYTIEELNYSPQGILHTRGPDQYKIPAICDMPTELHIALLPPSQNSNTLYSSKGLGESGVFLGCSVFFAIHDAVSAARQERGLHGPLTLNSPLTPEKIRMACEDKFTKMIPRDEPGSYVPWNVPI
Text: (§1) Supplement 5. Exploratory analysis to evaluate potential AO-mediated DDI risks […]
(§2) Semi-mechanistic model for AO-mediated DDI risk predictions
(§3) Supp. Table 4. Summary of inhibitor parameters used in the semi -mechanistic static model to evaluate the risk of AO -mediated DDIs
(§4) Semi-mechanistic model for AO mediated DDI risk predictions: […]
(§5) using the semi-mechanistic static model with listed parameters in Suppl. Table 4. The most conservative approach is used for all compounds with maximum Cmax,u and minimum Ki,u data available. […]
(§6) [I] is the unbound concentration of inhibitors in the liver and was designated as the unbound maximum systemic concentration of inhibitors as a surrogate. 27 Due to the lack of AO kdeg values in the literature, the arithmetic means of all reported P450 kdeg (0.00026 min-1) was used.28, 29 […]
(§7) Table S4. Summary of inhibitor parameters used in the semi-mechanistic static model to evaluate the risk of […]
(§8) bSimcyp v.21 Compound Repository […]
(§9) dCorrected for the 0.05 mg/mL cytosolic protein from the measured fuinc at 1.5 mg/mL cytosolic protein34, 36

aldehyde oxidase (AO) [2] = target: T1, aldehyde oxidase (AO); conditions: cited from earlier work
[3] = Inhibitor plasma exposure and plasma binding (literature); assay type: in vivo, human; conditions: Figure 5
Text: as §1, §2, §3, §4, §5, §6, §7, §8, §9

[4] = Blood-to-plasma ratio (B/P); assay type: in vitro ADME, human
Text: Determination of blood to plasma ratio (B/P):
Whole human blood was collected on the day of the experiment from healthy volunteers. The collection protocol was approved by an independent ethical committee and all donors signed the consent forms. All samples were registered in the Janssen Biobank.
Prewarmed blood aliquots were mixed with the compounds (final concentrations shown in Suppl. Table 5) with a final organic DMSO solvent concentration of ≤0.1% (v/v). After gentle mixing to avoid haemolysis, blood aliquots were immediately collected for protein precipitation (1:1:8 ratios of blood sample:DMSO:ACN) and centrifugation (10 minutes, 3800 g) and the supernatant was used as a 0-minute reference blood sample. At the same time, blood aliquots were taken and centrifuged (10 minutes, 1200 g) to obtain the plasma portion. Plasma aliquots were then immediately collected for protein precipitation (1:1:8 ratios of plasma sample:DMSO:ACN) and centrifugation (10 minutes, 3800 g) and the supernatant was used as a 0-minute reference plasma sample. The remainder of the blood fraction was incubated (30 min at 37 °C). Following incubation, 30 -minute blood and plasma samples were taken and prepared as described for the reference 0-minute samples.
Mean compound concentration values (n=3 replicates) were calculated for both the blood and plasma samples. A blood-to-plasma concentration ratio was then determined using Eq. S4. […]

[5] = Cytosolic binding (fucyt), dog liver cytosol; conditions: 1 mg/mL; n=3, mean (CV%)
Protocol: In vitro data were generated to inform the PBPK models of the selected drugs (Supplement 1 in Appendix S1; Table S1). Subcellular fractions of human and dog liver were sourced from XenoTech (Kansas City, KS, USA). In vitro CLint,u was measured with substrate depletion and binding assays for all compounds (1 μM) in human liver microsomes (HLM; 0.25–0.5 mg/mL) and HLC (1 mg/mL). HLC pool was prepared from livers perfused with Custodiol HTK (histidine tryptophan ketoglutarate) solution, marketed as having preserved “high AO/XO activity.”[15] Dog liver cytosols (DLC; 1 mg/mL) were used to investigate cytosolic binding in the absence of AO. Routine in vitro assays were used to quantify unbound fraction in plasma (fup), blood‐to‐plasma ratio (B/P), and apparent permeability (Papp) through transwell transport assays utilizing canine Mdr1 knockout and empty vector‐transfected MDCKI cells.
𝐶𝐿 = 𝑘 × 𝑣𝑜𝑙𝑢𝑚𝑒 𝑜𝑓 𝑖𝑛𝑐𝑢𝑏𝑎𝑡𝑖𝑜𝑛 (Eq S9)
Cytosolic binding (fucyt):
The fraction unbound in human liver cytosols (fucyt) of compounds was determined by equilibrium
dialysis using the RED device (Thermo Fisher, Waltham MA, USA) with a molecular weight cut-off of
8 kDa. Dog or human liver cytosols at 1 mg/mL with 1 µM of compounds (300 µL, n=3 per compound)
were added to the donor compartment in 100 mM potassium phosphate buffer with final DMSO
liver cytosols to inactivate AO, whereas dog was used as a natural AO knock-out model. 500 µL of 100
mM potassium phosphate buffer (pH 7.35) was added to the receiver chamber for each replicate.
RED device was then sealed with an adhesive foil and incubated on an orbital shaker at 450 rpm (VWR
Symphony) at 37°C with 5 % CO2. After reaching equilibrium for 4 hours, aliquots from both the
receiver (30µL) and donor (30µL) sides of the membrane were matrix matched, and then quenched with
180 µL of cold ACN with 100 nM propranolol (internal standard). The samples were placed in a
Beckman Coulter Allegra x 12R Centrifuge (Brea, CA) for 15 minutes at 3700 rpm. After centrifugation,
the supernatant of each sample was diluted 1:2 and analyzed by LC -MS/ MS. Matrix stability and
recovery were assessed in triplicates and followed identical sample preparation.
Microsomal binding (fumic):
The fraction unbound in human liver microsomes (fumic) of compounds was determined by equilibrium
dialysis using the high-throughput dialysis method 2 using membranes from HTDialysis, LLC (Gales
Ferry, CT) having 12 to 14 kDa molecular mass cutoff. Deactivated HLM (by leaving the HLM
incubation media on the bench overnight at ambient temperature) at 0.25 mg/mL with 2 µM of
compounds (a final concentration of DMSO as 1%) was added to the donor compartment in 50 mM
phosphate buffer containing 1 M MgCl2. (150 µL, n=4 per compound). 150 µL of Dulbecco’s PBS
buffer (pH 7.4) was added to the receiver chamber for each replicate. After reaching equilibrium for 6
h on a plate shaker (200 rpm) at 37°C in a humidified CO2 incubator (5% CO2), aliquots from both the
receiver (45 µL) and donor (15 µL) sides of the membrane were matrix matched and analyzed by LC-
MS/MS. Matrix stability (n=3) and % of recovery (n=4) were assessed.
Data analysis for binding in microsomal and cytosolic incubations:
Fraction unbound in microsomal (fumic) and cytosolic (fucyt) incubations were calculated via Eq. S10-11
based on the ratio of the peak areas of analyte and internal standard.
𝑃𝑒𝑎𝑘 𝐴𝑟𝑒𝑎 𝑅𝑎𝑡𝑖𝑜 = (𝑃𝑒𝑎𝑘 𝐴𝑟𝑒𝑎 𝑜𝑓 𝐴𝑛𝑎𝑙𝑦𝑡𝑒)/(𝑃𝑒𝑎𝑘 𝐴𝑟𝑒𝑎 𝑜𝑓 𝐼𝑛𝑡𝑒𝑟𝑛𝑎𝑙 𝑆 tan 𝑑 𝑎𝑟𝑑) (Eq. S10)
𝑓𝑢𝑚𝑖𝑐 𝑜𝑟 𝑓𝑢𝑐𝑦𝑡 = (𝑃𝑒𝑎𝑘 𝐴𝑟𝑒𝑎 𝑅𝑎𝑡𝑖𝑜 𝑖𝑛 𝑟𝑒𝑐𝑒𝑖𝑣𝑒𝑟 𝑐𝑜𝑚𝑝𝑎𝑟𝑡𝑚𝑒𝑛𝑡)/
concentration (0.5 mg/mL) using Hallifax and Houston algorithm (Hallifax and Houston, 2006). Matrix
stability and recovery were assessed using Eq. S12 and Eq. S13.
%𝑠𝑡𝑎𝑏𝑖𝑙𝑖𝑡𝑦 = (𝐴𝑣𝑒𝑟𝑎𝑔𝑒 𝑝𝑒𝑎𝑘 𝑎𝑟𝑒𝑎 𝑖𝑛 𝑚𝑎𝑡𝑟𝑖𝑥 𝑎𝑡 𝑡ℎ𝑒 𝑒𝑛𝑑 𝑜𝑓 𝑖𝑛𝑐𝑢𝑏𝑎𝑡𝑖𝑜𝑛)/
(𝐴𝑣𝑒𝑟𝑎𝑔𝑒 𝑝𝑒𝑎𝑘 𝑎𝑟𝑒𝑎 𝑎𝑡 𝑇 = 0) × 100 (Eq. S12)
%𝑟𝑒𝑐𝑜𝑣𝑒𝑟𝑦 = (𝐴 + 𝐵)/𝐶 × 100 (Eq. S13)
where A is the average peak area ratio of all matrix samples, B is the average peak area ratio

[6] = Microsomal clearance incubations (substrate depletion); conditions: both, human, liver microsomes
CYP3A4 = conditions: cited from earlier work
[7] = cited from earlier work
[8] = cited from earlier work; remark: listed apart in the source
[9] = cited from earlier work; for fmAO: ref suppl. 8-13; for fmCYP3A4: ref suppl. 8-12
[10] = Microsomal binding (fumic)
[11] = In vitro permeability (Papp), transwell transport; conditions: dog, MDCK
[12] = Plasma protein binding (fup), rapid equilibrium dialysis; assay type: in vitro ADME, human; conditions: male, human, plasma, 20 h, 1 µM
Protocol: (differing in 2 donors) were used for activity and microsomal binding assays, respectively.
The human biological samples were sourced ethically, and their research use was in accord with the terms of the informed consents under an IRB/EC approved protocol.
Determination of plasma protein binding (fup):
Human plasma (male, K2EDTA) was obtained from BioIVT (Baltimore, MD, USA). A pool of n=20 donors was prepared in-house (batch: 16062022). The plasma protein binding of compounds in human was determined by equilibrium dialysis using the rapid equilibrium dialysis (RED) device (Thermo […]
Frozen blank human plasma […]
solution to a final concentration of 1 µM (0.5 % DMSO). 300 µ L of the fortified plasma samples were subjected to dialysis against 500 µL PBS buffer at pH 7.4, for 6 h at 37 °C in triplicate. After dialysis, 200 µl aliquots of the buffer and the plasma compartments were transferred into micronic tubes. To minimize the potential for non -specific binding to the micronic tubes the buffer sam ples were collected on to 50µl of 10 % bovine serum albumin (BSA). For the assessment of test compound stability in plasma, 300 µl aliquots of the spiked plasma solutions were transferred into micronic tubes and incubated in an air heated incubator at 37°C without shaking for 4 and 20 hours. The remaining spiked protein solutions were frozen and used to measure the initial start concentration ( C0) to calculate the recovery. Sample analysis was achieved by LC -MS/MS and absolute quantification of the drug lev els in the buffer and plasma compartments was achieved via a matrix matched calibration curve (in the presence of an internal standard tolbutamide). All buffer and plasma sample sets were matrix matched […]
for analysis. The samples were centrifuged (15 minutes, 3400 g) and supernatants were transferred to a fresh plate for analysis. The unbound concentration (Cu), and the total concentration (CED) were determined by measurement of the concentration of the test compound in the buffer and plasma compartments of the dialysis cells, respectively. The fraction unbound was calculated using Eq. S1.
fuplasma = Cu/CED (Eq. S1)
The percentage recovery was calculated as the ratio of the sum of the amount in the buffer (Au) and plasma (AED) compartments to the amount at time zero (A0) (Eq. S2). The percentage stability was calculated as the ratio of the concentration of the test compound at the end of the incubation (C t) time […]
% recovery = (( Au + AED ) / A0 ) × 100 (Eq. S2)

[13] = Cytosolic binding (fucyt), human liver cytosol with AO inhibitor; conditions: 1 mg/mL; n=3, mean (CV%)
[14] = without inhibitor; cited from earlier work
[15] = parameters: method as in earlier work; conditions: menadione 100 µM; ref 45 (suppl.); cited from earlier work
[16] = DDI study with rifampicin (capmatinib 400, idelalisib 150, lenvatinib 24 mg) or carbamazepine (ziprasidone 20 mg), observed, ref suppl. 15,18,21,25
[17] = with itraconazole (capmatinib 200 mg) or ketoconazole (idelalisib 400, lenvatinib 5, ziprasidone 40 mg), observed, ref suppl. 15,10,17,20,24
[18] = with rifampicin (capmatinib 400, idelalisib 150, lenvatinib 24 mg) or carbamazepine (ziprasidone 20 mg), observed, ref suppl. 15,18,21,25
[19] = iv: zaleplon 5 (F), ziprasidone 5, zoniporide 80 mg, observed, ref suppl. 22,23,13
[20] = corrected with Hallifax&Houston algorithm

C#Cc1cccc(Nc2ncnc3cc4c(cc23)OCCOCCOCCO4)c1 [Icotinib]
IC50 (UGT1A1): 12.2 µM
Ki (UGT1A3): 25.6 µM
Ki (aldehyde oxidase (AO) [1]; KI,u): 0.92 µM
Ki (aldehyde oxidase (AO) [1]; Ki,u): 0.35 µM
Mode of inhibition (aldehyde oxidase (AO) [2]; ref suppl. 30, 31, 32, 35, 59): Time-dependent
Maximal inactivation rate (kinact) (aldehyde oxidase (AO) [2]; ref suppl. 32): 0.55 min⁻¹
Cmax,u [3]: 570 nM

O=C1Cc2cc(CCN3CCN(c4nsc5ccccc45)CC3)c(Cl)cc2N1 [Ziprasidone]
B/P ([4]; 50 ng/mL): 0.44
B/P ([4]; 1000 ng/mL): 0.47
B/P (assumed PBPK input) ([4]; assumed from measured 0.455): 0.55
fucyt, Dog Liver Cytosol with 50 uM Hydralazine [5]: 0.288 (3.81)
microsomal CLint at 1 µM [6]: 71.9 µL/min/mg
Cmax, control (CYP3A4; DDI study with itraconazole (capmatinib 200 mg) or ketoconazole (idelalisib 400, lenvatinib 5, ziprasidone 40 mg), observed geomean (CV%), ref suppl. 15,10,17,20,24): 89 (30) ng/mL
AUCinf, control (CYP3A4; DDI study with itraconazole (capmatinib 200 mg) or ketoconazole (idelalisib 400, lenvatinib 5, ziprasidone 40 mg), observed, ref suppl. 15,10,17,20,24): 899 (20) ng.h/mL
AUCinf, control (AUC0-12 for ziprasidone) (CYP3A4; [16]): 495 (26) ng.h/mL
Cmax, control (CYP3A4; [16]): 79 (24) ng/mL
AUCinf, interaction (CYP3A4; [17]): 1199 (18) ng.h/mL
Cmax, interaction (CYP3A4; [17]): 119 (25) ng/mL
AUCinf, interaction (AUC0-12 for ziprasidone) (CYP3A4; [18]): 285 (28) ng.h/mL
Cmax, interaction (CYP3A4; [18]): 48 (27) ng/mL
pKa1 ([7]; 47 (per cell)): 8.24[12]
pKa2 ([7]; 47 (per cell)): 6.31[12]
logP ([7]; octanol-water, 12 (per cell)): 4.53[12]
CLiv/oral [CV%] ([8]; i.v., ref Table S2/S3 studies): 23.04 [14] (i.v.) L/h
AUCinf [8, 19]: 217 (20) ng.h/mL
Cmax [8, 19]: 83 (21) ng/mL
CLRenal ([8]; observed, ref Table S2/S3 studies): Negligible
Cmax ([8]; oral: capmatinib 200, idelalisib 150, lenvatinib 10, zaleplon 5 (F), ziprasidone 20 mg, observed mean or geomean (CV%), ref suppl. 8,14,16,19,22,23): 64 (28) ng/mL
AUCinf ([8]; oral: capmatinib 200, idelalisib 150, lenvatinib 10, zaleplon 5 (F), ziprasidone 20 mg, observed, ref suppl. 8,14,16,19,22,23): 514 (27) ng.h/mL
fmAO ([9]; measured in excreta): 0.67
fmAO ([9]; observed (mass balance), min-max where uncertain, Table S10): 67
fmCYP3A4 ([9]; observed (mass balance), min-max where uncertain): 33
fmCYP3A4 [9]: 0.33
fumic (PBPK input) ([10]; at incubation protein concentration (0.25 or 0.5 mg/mL)): 0.210
Predicted fumic for 0.5 mg/mL [10, 20]: 0.118
Predicted fumic for 1 mg/mL [10, 20]: 0.063
Papp A→B at 120 min, 5 µM [11]: 3.15 ×10⁻⁶ cm/s
Papp B→A at 120 min, 5 µM [11]: 0.843 ×10⁻⁶ cm/s
efflux ratio at 120 min, 5 µM [11]: 0.268
% Stability in plasma [12]: 96.2%
fucyt, Human Liver Cytosol with 5 uM Raloxifene [13]: 0.337 (4.82)
fucyt, Human Liver Cytosol with 50 uM Hydralazine [13]: 0.356 (2.53)
HH CLint (no reaction phenotyping) [14]: 21.8[5], ^f μL/min/10^6 hepatocytes

CC1=CC(=O)c2ccccc2C1=O [menadione]
inhibition of ziprasidone reduction [15]: 90%

Reference: PMC11706420, “Establishing a physiologically based pharmacokinetic framework for aldehyde oxidase and dual aldehyde oxidase‐CYP substrates” (CPT: Pharmacometrics & Systems Pharmacology, 2024)
